Results reported in PubChem BioAssay AID2060893 (Molecular Pharmacology Branch, DTP, NCI, 2025).

Tested on: K86415-001-R-J1-PDC complex spheroids, viability
Assay: Anticancer human tumor K86415-001-R-J1-PDC patient-derived lung adenocarcinoma cell line growth inhibition [RAS]
Settings: for IC50: curve of first compound; for viability, T/C: stronger effect = lower value
How it was run: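 Tumour cells grown as complex spheroids with HUVEC endothelial cells and mesenchymal stem cells, treated with RAS pathway inhibitor combinations. Each agent spans half-log steps from near clinical Cmax, or 10 microM where Cmax is unknown.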
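Also: spheroids exposed to agents for seven days before readout.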

C=CC(=O)N1CCN(c2nc(OCC3CCCN3C)nc3c(F)c(-c4nc(N)cc(C)c4C(F)(F)F)c(Cl)cc23)C(C)C1 (centres undefined) + CCn1c(-c2cc(N3CCN(C)CC3)cnc2C(C)OC)c2c3cc(ccc31)-c1csc(n1)CC(NC(=O)C1CC1C)C(=O)N1CCCC(N1)C(=O)OCC(C)(C)C2 was tested, and the IC50 (second compound 0.000949 µM) was < 3.16 nM, the IC50 (second compound 0.003 µM) was < 3.16 nM and the IC50 (second compound 0.00949 µM) was < 3.16 nM. The IC50 (second compound 0.03 µM) was < 3.16 nM, the IC50 (second compound 0.0949 µM) was < 3.16 nM and the IC50 (second compound 0.3 µM) was < 3.16 nM. The viability, T/C (second compound 0.000949 µM, first compound 0.00316 µM) was 14%, the viability, T/C (second compound 0.000949 µM, first compound 0.01 µM) was 11.3% and the viability, T/C (second compound 0.000949 µM, first compound 0.0316 µM) was 7.59%. It also gave a viability, T/C (second compound 0.000949 µM, first compound 0.1 µM) of 8%, a viability, T/C (second compound 0.000949 µM, first compound 0.316 µM) of 8.62% and a viability, T/C (second compound 0.000949 µM, first compound 1 µM) of 8.31%. It also gave a viability, T/C (second compound 0.003 µM, first compound 0.00316 µM) of 9.34%, a viability, T/C (second compound 0.003 µM, first compound 0.01 µM) of 6.02% and a viability, T/C (second compound 0.003 µM, first compound 0.0316 µM) of 5.36%. For the same molecule, the viability, T/C (second compound 0.003 µM, first compound 0.1 µM) was 5.95%, the viability, T/C (second compound 0.003 µM, first compound 0.316 µM) was 6.92% and the viability, T/C (second compound 0.003 µM, first compound 1 µM) was 5.35%. The viability, T/C (second compound 0.00949 µM, first compound 0.00316 µM) was 4.68%, the viability, T/C (second compound 0.00949 µM, first compound 0.01 µM) was 4.68% and the viability, T/C (second compound 0.00949 µM, first compound 0.0316 µM) was 4.36%. The viability, T/C (second compound 0.00949 µM, first compound 0.1 µM) was 4.25%, the viability, T/C (second compound 0.00949 µM, first compound 0.316 µM) was 4.08% and the viability, T/C (second compound 0.00949 µM, first compound 1 µM) was 3.96%. The viability, T/C (second compound 0.03 µM, first compound 0.00316 µM) was 3.4%, the viability, T/C (second compound 0.03 µM, first compound 0.01 µM) was 3.36% and the viability, T/C (second compound 0.03 µM, first compound 0.0316 µM) was 2.8%. It also gave a viability, T/C (second compound 0.03 µM, first compound 0.1 µM) of 2.79%, a viability, T/C (second compound 0.03 µM, first compound 0.316 µM) of 3.36% and a viability, T/C (second compound 0.03 µM, first compound 1 µM) of 3.36%. It also gave a viability, T/C (second compound 0.0949 µM, first compound 0.00316 µM) of 2.57%, a viability, T/C (second compound 0.0949 µM, first compound 0.01 µM) of 2.3% and a viability, T/C (second compound 0.0949 µM, first compound 0.0316 µM) of 3.16%. For the same molecule, the viability, T/C (second compound 0.0949 µM, first compound 0.1 µM) was 2.37%, the viability, T/C (second compound 0.0949 µM, first compound 0.316 µM) was 2.22% and the viability, T/C (second compound 0.0949 µM, first compound 1 µM) was 3.4%. It also gave a viability, T/C (second compound 0.3 µM, first compound 0.00316 µM) of 2.23%, a viability, T/C (second compound 0.3 µM, first compound 0.01 µM) of 2.68% and a viability, T/C (second compound 0.3 µM, first compound 0.0316 µM) of 2.5%. For the same molecule, the viability, T/C (second compound 0.3 µM, first compound 0.1 µM) was 2.49%, the viability, T/C (second compound 0.3 µM, first compound 0.316 µM) was 3.18% and the viability, T/C (second compound 0.3 µM, first compound 1 µM) was 2.66%.

With CC1(C)CCC(Nc2ncc(C(F)(F)F)c(-c3c[nH]c4c(P(C)(C)=O)c(C#N)ccc34)n2)CN1 (centres undefined) + CCn1c(-c2cc(N3CCN(C)CC3)cnc2C(C)OC)c2c3cc(ccc31)-c1csc(n1)CC(NC(=O)C1CC1C)C(=O)N1CCCC(N1)C(=O)OCC(C)(C)C2 the IC50 (second compound 0.000949 µM) was 1.19 nM, the IC50 (second compound 0.003 µM) was < 0.949 nM and the IC50 (second compound 0.00949 µM) was < 0.949 nM. For the same molecule, the IC50 (second compound 0.03 µM) was < 0.949 nM, the IC50 (second compound 0.0949 µM) was < 0.949 nM and the IC50 (second compound 0.3 µM) was < 0.949 nM. It also gave a viability, T/C (second compound 0.000949 µM, first compound 0.000949 µM) of 57.1%, a viability, T/C (second compound 0.000949 µM, first compound 0.003 µM) of 45.9% and a viability, T/C (second compound 0.000949 µM, first compound 0.00949 µM) of 37.9%. It also gave a viability, T/C (second compound 0.000949 µM, first compound 0.03 µM) of 39.5%, a viability, T/C (second compound 0.000949 µM, first compound 0.0949 µM) of 42.2% and a viability, T/C (second compound 0.000949 µM, first compound 0.3 µM) of 39.5%. The viability, T/C (second compound 0.003 µM, first compound 0.000949 µM) was 24.9%, the viability, T/C (second compound 0.003 µM, first compound 0.003 µM) was 18.3% and the viability, T/C (second compound 0.003 µM, first compound 0.00949 µM) was 20.9%. For the same molecule, the viability, T/C (second compound 0.003 µM, first compound 0.03 µM) was 20.8%, the viability, T/C (second compound 0.003 µM, first compound 0.0949 µM) was 24.6% and the viability, T/C (second compound 0.003 µM, first compound 0.3 µM) was 23.6%. It also gave a viability, T/C (second compound 0.00949 µM, first compound 0.000949 µM) of 10.8%, a viability, T/C (second compound 0.00949 µM, first compound 0.003 µM) of 10.4% and a viability, T/C (second compound 0.00949 µM, first compound 0.00949 µM) of 11.1%. The viability, T/C (second compound 0.00949 µM, first compound 0.03 µM) was 13.3%, the viability, T/C (second compound 0.00949 µM, first compound 0.0949 µM) was 12.4% and the viability, T/C (second compound 0.00949 µM, first compound 0.3 µM) was 14.3%. The viability, T/C (second compound 0.03 µM, first compound 0.000949 µM) was 6.32%, the viability, T/C (second compound 0.03 µM, first compound 0.003 µM) was 7.15% and the viability, T/C (second compound 0.03 µM, first compound 0.00949 µM) was 6.95%. It also gave a viability, T/C (second compound 0.03 µM, first compound 0.03 µM) of 7.05%, a viability, T/C (second compound 0.03 µM, first compound 0.0949 µM) of 6.99% and a viability, T/C (second compound 0.03 µM, first compound 0.3 µM) of 8.91%. The viability, T/C (second compound 0.0949 µM, first compound 0.000949 µM) was 5.16%, the viability, T/C (second compound 0.0949 µM, first compound 0.003 µM) was 5.23% and the viability, T/C (second compound 0.0949 µM, first compound 0.00949 µM) was 6.96%. The viability, T/C (second compound 0.0949 µM, first compound 0.03 µM) was 5.02%, the viability, T/C (second compound 0.0949 µM, first compound 0.0949 µM) was 6.21% and the viability, T/C (second compound 0.0949 µM, first compound 0.3 µM) was 7.98%. It also gave a viability, T/C (second compound 0.3 µM, first compound 0.000949 µM) of 3.6%, a viability, T/C (second compound 0.3 µM, first compound 0.003 µM) of 4.59% and a viability, T/C (second compound 0.3 µM, first compound 0.00949 µM) of 5.58%. The viability, T/C (second compound 0.3 µM, first compound 0.03 µM) was 6.23%, the viability, T/C (second compound 0.3 µM, first compound 0.0949 µM) was 5.28% and the viability, T/C (second compound 0.3 µM, first compound 0.3 µM) was 6.87%.
